In ChEMBL document CHEMBL1772971, “Novel 18F-labeled benzofuran derivatives with improved properties for positron emission tomography (PET) imaging of β-amyloid plaques in Alzheimer's brains” (J Med Chem, 2011):
The source made the active and inactive calls. The rule behind the calls is not given here.

Key:
[1] = Displacement of [125I]IMPY from amyloid beta (1 to 42) after 3 hrs by gamma counting
Blood [2] = test: Biodistribution in ddY mouse blood at 185 to 370 kBq, iv after 2 mins by gamma counting; type: ADME, organism-based; conditions: in vivo
Brain [3] = test: Biodistribution in ddY mouse brain at 185 to 370 kBq, iv after 2 mins by gamma counting; type: ADME, organism-based; conditions: in vivo
Bone [4] = test: Biodistribution in ddY mouse bone at 185 to 370 kBq, iv after 2 mins by gamma counting; type: ADME, organism-based, Bone element; conditions: in vivo
Blood [5] = test: Biodistribution in ddY mouse blood at 185 to 370 kBq, iv after 10 mins by gamma counting; type: ADME, organism-based; conditions: in vivo
Brain [6] = test: Biodistribution in ddY mouse brain at 185 to 370 kBq, iv after 10 mins by gamma counting; type: ADME, organism-based; conditions: in vivo
Bone [7] = test: Biodistribution in ddY mouse bone at 185 to 370 kBq, iv after 10 mins by gamma counting; type: ADME, organism-based, Bone element; conditions: in vivo
Blood [8] = test: Biodistribution in ddY mouse blood at 185 to 370 kBq, iv after 30 mins by gamma counting; type: ADME, organism-based; conditions: in vivo, 0.5 h
Brain [9] = test: Biodistribution in ddY mouse brain at 185 to 370 kBq, iv after 30 mins by gamma counting; type: ADME, organism-based; conditions: in vivo, 0.5 h
Bone [10] = test: Biodistribution in ddY mouse bone at 185 to 370 kBq, iv after 30 mins by gamma counting; type: ADME, organism-based, Bone element; conditions: in vivo, 0.5 h
Blood [11] = test: Biodistribution in ddY mouse blood at 185 to 370 kBq, iv after 60 mins by gamma counting; type: ADME, organism-based; conditions: in vivo, 1 h
Brain [12] = test: Biodistribution in ddY mouse brain at 185 to 370 kBq, iv after 60 mins by gamma counting; type: ADME, organism-based; conditions: in vivo, 1 h
Bone [13] = test: Biodistribution in ddY mouse bone at 185 to 370 kBq, iv after 60 mins by gamma counting; type: ADME, organism-based, Bone element; conditions: in vivo, 1 h
Brain [14] = test: Ratio of drug level in brain after 2 mins to brain after 60 mins in ddY mouse […] at 185 to 370 kBq, iv; type: ADME, organism-based; conditions: in vivo
[15] = target: Amyloid-beta precursor protein (Homo sapiens) (UniProt P05067); test: Binding affinity to beta amyloid plaques in human Alzheimer's disease brain at 444 kBq/50 uL after 1 hr by autoradiography; conditions: tested as the 18F-labelled form
Sequence of Amyloid-beta precursor protein (Homo sapiens) (P05067 whole entry): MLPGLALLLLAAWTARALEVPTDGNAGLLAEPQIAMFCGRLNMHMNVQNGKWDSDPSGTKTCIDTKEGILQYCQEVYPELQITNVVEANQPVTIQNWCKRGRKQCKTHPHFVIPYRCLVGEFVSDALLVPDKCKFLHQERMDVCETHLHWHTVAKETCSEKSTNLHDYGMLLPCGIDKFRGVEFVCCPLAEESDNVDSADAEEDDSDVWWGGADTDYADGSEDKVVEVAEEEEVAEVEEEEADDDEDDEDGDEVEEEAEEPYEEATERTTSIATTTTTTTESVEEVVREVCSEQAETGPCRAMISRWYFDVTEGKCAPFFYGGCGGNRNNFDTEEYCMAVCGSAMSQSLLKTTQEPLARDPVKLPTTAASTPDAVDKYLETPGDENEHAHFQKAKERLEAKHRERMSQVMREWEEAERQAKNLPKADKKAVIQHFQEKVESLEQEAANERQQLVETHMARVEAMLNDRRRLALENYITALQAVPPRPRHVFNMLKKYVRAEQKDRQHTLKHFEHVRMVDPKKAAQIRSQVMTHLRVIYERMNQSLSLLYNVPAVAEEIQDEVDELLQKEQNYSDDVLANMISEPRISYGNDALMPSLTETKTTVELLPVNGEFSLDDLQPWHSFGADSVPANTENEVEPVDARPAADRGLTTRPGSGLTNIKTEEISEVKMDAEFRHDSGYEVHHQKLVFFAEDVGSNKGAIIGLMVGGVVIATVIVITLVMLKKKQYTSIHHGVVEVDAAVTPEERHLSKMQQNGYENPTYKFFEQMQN

CN(C)c1ccc(-c2cc3cc(OCCOCCOCCF)ccc3o2)cn1
Ki [1]: 0.95 nM

CN(C)c1ccc(-c2cc3cc(OCCOCCOCC[18F])ccc3o2)cc1
Drug uptake (Blood [2]): 1.64 % ID/g
Drug uptake (Brain [3]): 2.88 % ID/g
Drug uptake (Bone [4]): 1.19 % ID/g
Drug uptake (Blood [5]): 2.48 % ID/g
Drug uptake (Brain [6]): 5.66 % ID/g
Drug uptake (Bone [7]): 1.76 % ID/g
Drug uptake (Blood [8]): 2.68 % ID/g
Drug uptake (Brain [9]): 3.14 % ID/g
Drug uptake (Bone [10]): 3.63 % ID/g
Drug uptake (Blood [11]): 3.41 % ID/g
Drug uptake (Brain [12]): 2.8 % ID/g
Drug uptake (Bone [13]): 2.74 % ID/g
Ratio (Brain [14]): 1.02

CNc1ccc(/C=C/c2ccc(OCCOCCOCC[18F])nc2)cc1 [FLORBETAPIR F 18]
Ratio (Brain [14]): 3.8

CNc1ccc(-c2cc3cc(OCCOCCOCCF)ccc3o2)cn1
Ki [1]: 2.41 nM
Activity [15]: Active

CNc1ccc(/C=C/c2ccc(OCCOCCOCC[18F])cc2)cc1 [FLORBETABEN F18]
Ratio (Brain [14]): 4.8

CN(C)c1ccc(-c2cc3cc(OCCOCCOCC[18F])ccc3o2)cn1
Ratio (Brain [14]): 2.11
